Measured values reported in ChEMBL document CHEMBL2021857, “Synthesis, biological activity and docking study of imidazol-5-one as novel non-nucleoside HIV-1 reverse transcriptase inhibitors” (Bioorg Med Chem, 2012).

target: Human immunodeficiency virus type 1 reverse transcriptase (Human immunodeficiency virus 1) (UniProt Q72547); assay: Inhibition of HIV-1 reverse transcriptase at 20 ug after 1 hr by colorimetry

Going from `CC1=N/C(=C/c2ccc(N(C)C)cc2)C(=O)N1Cc1ccncc1` to `CC1=N/C(=C/c2ccc(Cl)cc2)C(=O)N1Cc1ccncc1`, the inhibition rises from 58.1% to 69.8%.

First: COc1cc(/C=C2/N=C(c3ccccc3)N(Cc3ccncc3)C2=O)ccc1O
Second: COc1ccc(/C=C2/N=C(c3ccccc3)N(Cc3ccncc3)C2=O)cc1
The inhibition of the first is higher: 50.2% for the first, 50% for the second.

Going from `O=C1/C(=C\c2ccccc2)N=C(c2ccccc2)N1Cc1ccncc1` to `O=C1/C(=C\c2ccccc2O)N=C(c2ccccc2)N1Cc1ccncc1`, the inhibition falls from 54.4% to 43.2%.

Compared with `CC1=N/C(=C/c2ccc(Cl)cc2Cl)C(=O)N1Cc1ccncc1`, `O=C1/C(=C\c2ccc(Cl)cc2Cl)N=C(c2ccccc2)N1Cc1ccncc1` is higher in inhibition: 62.8% for the first, 70% for the second.

Going from `O=C1/C(=C\c2ccc(Cl)cc2)N=C(c2ccccc2)N1Cc1ccncc1` to `CN(C)c1ccc(/C=C2/N=C(c3ccccc3)N(Cc3ccncc3)C2=O)cc1`, the inhibition falls from 47% to 36.8%.

First: CC1=N/C(=C/c2ccccc2)C(=O)N1Cc1ccncc1
Second: CC1=N/C(=C/c2ccccc2O)C(=O)N1Cc1ccncc1
The inhibition of the first is lower: 60.7% for the first, 74.2% for the second.

Going from `C/C=C1/N=C(c2ccccc2)N(Cc2ccncc2)C1=O` to `O=C1/C(=C\c2ccco2)N=C(c2ccccc2)N1Cc1ccncc1`, the inhibition rises from 61.5% to 62.5%.

Going from `COc1cc(/C=C2/N=C(c3ccccc3)N(Cc3ccncc3)C2=O)cc(OC)c1OC` to `COc1cc(/C=C2/N=C(C)N(Cc3ccncc3)C2=O)cc(OC)c1OC`, the inhibition rises from 57.8% to 67%.

Compared with `CC1=N/C(=C/c2c[nH]c3ccccc23)C(=O)N1Cc1ccncc1`, `CC1=N/C(=C/c2ccco2)C(=O)N1Cc1ccncc1` is higher in inhibition: 58.7% for the first, 92.7% for the second.

First: C/C=C1/N=C(C)N(Cc2ccncc2)C1=O
Second: COc1ccc(/C=C2/N=C(C)N(Cc3ccncc3)C2=O)cc1
The inhibition of the first is higher: 64.3% for the first, 59.2% for the second.

target: Human immunodeficiency virus type 1 reverse transcriptase (Human immunodeficiency virus 1, UniProt Q72547); assay: Inhibition of HIV-1 reverse transcriptase after 1 hr by colorimetry

`O=C1/C(=C\c2ccc(Cl)cc2Cl)N=C(c2ccccc2)N1Cc1ccncc1` and `CC1=N/C(=C/c2ccc(Cl)cc2)C(=O)N1Cc1ccncc1` are within 1.5-fold of each other in IC50: 3.8 µM for the first, 3.9 µM for the second.

`CC1=N/C(=C/c2ccccc2O)C(=O)N1Cc1ccncc1` and `CC1=N/C(=C/c2ccco2)C(=O)N1Cc1ccncc1` are within 1.5-fold of each other in IC50: 3.5 µM for the first, 2.5 µM for the second.
